Measured values published in patent US11613528B2, “Small molecule inhibitors of shared epitope-calreticulin interactions and methods of use” (The Regents of the University of Michigan, priority 2017, dated 2023).
“Also recorded” adds a separate entry of the source.

Columns and labels:
RAW 264.7 cells = assay: in vitro osteoclast (OC) differentiation assay; assay type: cell-based, mouse
Method: OC differentiation was determined at day 5.
RAW 264.7 cells were cultured in OC-differentiating conditions in the presence or absence of the racemic mix (left) of HL840, the S-enantiomer (middle), or the R-enantiomer (right) at different concentrations, and their inhibitory effect on OC differentiation was determined at day 5.
To differentiate osteoclast (OC) from RAW 264.7 mouse macrophages, cells were cultured in the same way (2×10^4 per well), except that RANKL was added at a concentration of 20 ng/ml, for 5-6 days in the presence or absence of various compounds at different concentrations. To quantify the number of OCs, cultures were fixed and stained for tartrate-resistant acid phosphatase (TRAP) activity using an acid phosphatase kit (Kamiya Biomedical Company, Seattle, Wash.) according to the manufacturer's instructions. TRAP-positive multinucleated OCs (>3 nuclei) were counted using a tissue culture inverted microscope. All experiments were performed in triplicates and repeated 4 (C & D, n=12) or 3 (E-L; n=9) times. Percent inhibition of OC formation relative to cultures with PBS were calculated and presented as dose-response curves. IC50 values were calculated using the GraphPad-Prism software.

[1] = oral availability in vivo (oral gavage, serum levels); parameters: species or system DBA/1 mice
mice with CIA = assay: collagen induced arthritis (CIA) animal model; assay type: in vivo, DBA/1 mice; details: oral, doses as low as 1.25 μg/Kg body weight twice weekly
Method: Arthritis incidence was recorded.
2-tailed Student t-test; **, p<0.005.
Specifically, experiments were conducted with an animal model of collagen induced arthritis (CIA).

SE-CRT interactions = assay: inhibition of SE-CRT interactions; assay type: binding
SKG mice = assay: pre-clinical model of RA in SKG mice; assay type: in vivo
[2] = permeability through Caco-2 cell layers; assay type: in vitro ADME; details: human

| Compound | enantiomer-specific activity (e.g., inhibition of SE-CRT interaction and signaling) of racemic HL840 (RAW 264.7 cells; inhibitory effect on OC differentiation at day 5, FIG. 3) | oral availability in vivo [1] | arthritis severity (mice with CIA) | bone destruction (radiologic bone damage) (mice with CIA) | disease development (arthritis incidence) (mice with CIA) | inhibition of SE-CRT interactions (SE-CRT interactions) | therapeutic effects (SKG mice) | IC50 (RAW 264.7 cells; Mus musculus, RAW264.7, 120 h, RAW 264.7 cells in OC-differentiating conditions, OC differentiation at day 5, read-out: anti-osteoclast (OC) activity IC50) | Papp A→B [2] |
| --- | --- | --- | --- | --- | --- | --- | --- | --- | --- |
| Cn1cc(/C=C/C(=O)N2CCC[C@@H](Cn3cc(CN)nn3)C2)cn1 (single isomer, unassigned) [(R)-enantiomer] | responsible for all activity |  |  |  |  |  |  |  |  |
| Cn1cc(/C=C/C(=O)N2CCC[C@@H](Cn3cc(CN)nn3)C2)cn1 (racemic) [HL840, (R,E)-(1-((1-(3-(1-methyl-1H-pyrazol-4-yl)acryloyl)piperidin-3-yl)methyl)-1H-1,2,3-triazol-4-yl)methanaminium] |  | moderately orally available; also recorded: orally available in vivo | decreased arthritis severity | prevented bone destruction | strongly inhibited disease development | potent, competitive inhibition | Significant therapeutic effects | 0.0199 nM | 5.6 ×10⁻⁶ cm/s |
